System: Gaeumannomyces graminis var. tritici (Ggt)
Experiment: In vitro Assay: mycelial growth of Ggt on minimal media agar plates containing test compound
Assay type: cell-based
Settings: Gaeumannomyces graminis, dark, 19-20° C., 4 to 5 days, diameter of mycelial growth; for inhibition at 0.1 ppm: 0.1 ppm in minimal media agar, read-out: In vitro (ppm) 0.1, Percent Inhibition; for inhibition at 1 ppm: 1 ppm in minimal media agar, read-out: In vitro (ppm) 1, Percent Inhibition; for inhibition at 10 ppm: 10 ppm in minimal media agar, read-out: In vitro (ppm) 10, Percent Inhibition
How it was run: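 Compounds added from acetone stock into minimal (Czapek Dox) agar; plates inoculated with three 4-mm Ggt plugs, incubated in dark at 19-20° C for 4 to 5 days. Colony diameter measured; Percent Inhibition = [1-((treated mm −4)/(control mm −4))]×100.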

SMILES | inhibition at 0.1 ppm [%] | inhibition at 1 ppm [%] | inhibition at 10 ppm [%]
COc1cc(CNC(=O)c2c(Cl)cccc2[Si](C)(C)C)cc(OC)c1OC [Example 140, 2-Chloro-N-[(3,4,5-trimethoxyphenyl)methyl]-6-(trimethylsilyl)benzamide] | 19 | 19 | 81
CCN(C(C)=O)C(=O)c1c(Cl)cccc1[Si](C)(C)C [Example 47, N-Acetyl-2-chloro-N-ethyl-6-(trimethylsilyl)benzamide] | < 0 | < 0 | 70
CCNC(=O)c1c(F)cccc1-c1ccccc1C [Example 94, N-Ethyl-2-fluoro-6-(2-methylphenyl)benzamide] | 9 | 63 | 86
C[Si](C)(C)c1cccc(Cl)c1C(=O)NCc1ccccn1 [Example 135, 2-Chloro-N-(2-pyridinylmethyl)-6-(trimethylsilyl)benzamide] | 22 | 17 | 39
CC(C)c1ccccc1NC(=O)c1c(Cl)cccc1[Si](C)(C)C [Example 156, 2-Chloro-N-[2-(1-methylethyl)phenyl]-6-(trimethylsilyl)benzamide] | 9 | 33 | 72
CCNC(=O)c1c(-c2ccccc2)cccc1[Si](C)(C)C [Example 221, N-Ethyl-2-phenyl-6-(trimethylsilyl)benzamide] | 15 | 46 | 85
CCNC(=O)c1sc(C=O)cc1[Si](C)(C)C [Example 258, N-Ethyl-5-formyl-3-(trimethylsilyl)-2-thiophenecarboxamide] | 19 | 19 | 42
CCNC(=O)c1cc(NC)ccc1[Si](C)(C)C [Example 275, N-Ethyl-5-(methylamino)-2-(trimethylsilyl)benzamide] | 22 | 81 | 94
CCN(CC)C(=O)c1c(I)ccc(F)c1[Si](C)(C)C [Example 40, N,N-Diethyl-3-fluoro-6-iodo-2-(trimethylsilyl)benzamide] | < 0 | < 0 | 53
Cc1ccc(F)c([Si](C)(C)C)c1C(=O)N(C)C(C)(C)C [Example 11, N-(1,1-Dimethylethyl)-3-fluoro-N,6-dimethyl-2-(trimethylsilyl)benzamide] | < 0 | < 0 | 24
CCNC(=O)c1sc2c(c1[Si](C)(C)C)CCCC2 [Example 274, N-Ethyl-3-(trimethylsilyl)-4,5,6,7-tetrahydrobenzo[B]thiophene-2-carboxamide] | < 0 | 10 | 67
CCCSC(=O)c1c(Cl)cccc1[Si](C)(C)C [Example 79, 2-Chloro-6-(trimethylsilyl)-benzenecarbothioic acid, S-propyl ester] | 12 | 12 | 65
CCNC(=O)c1c(Cl)cc(C(C)(C)C)cc1[Si](C)(C)C [Example 235, 2-Chloro-4-(1,1-dimethylethyl)-N-ethyl-6-(trimethylsilyl)benzamide] | 3 | < 0 | 70
CCNC(=O)c1c([Si](C)(C)C)ccc(SC)c1Cl [Example 231, 2-Chloro-N-ethyl-3-(methylthio)-6-(trimethylsilyl)benzamide] | < 0 | 76 | 96
CCNC(=O)c1sc(C)c(C)c1[Si](C)(C)C [Example 286, 4,5-Dimethyl-N-ethyl-3-(trimethylsilyl)-2-thiophenecarboxamide] | 76 | 93 | 100

Source: patent publication US6410558B1, “Fungicides for the control of take-all disease of plants” (Monsanto Technology LLC, priority 1991, dated 2002)
